Values joined by “and” are separate entries in the source; they are usually repeats but may differ in a detail not shown here. Identical values can stand only once. ± gives the uncertainty stated by the source.
Test: xn = mol fraction of the nth substance listed

SMILES: O=C1O[C@H]([C@@H](O)CO)C(O)=C1O + O
- viscosity (293.15 K, 101 kPa, x1 = 0.00359): 1.078 ± 0.023 mPa·s and 1.081 ± 0.023 mPa·s and 1.077 ± 0.017 mPa·s
- viscosity (293.15 K, 101 kPa, x1 = 0.005375): 1.124 ± 0.024 mPa·s and 1.122 ± 0.024 mPa·s and 1.122 ± 0.018 mPa·s
- viscosity (293.15 K, 101 kPa, x1 = 0.007156): 1.162 ± 0.019 mPa·s
- viscosity (293.15 K, 101.3 kPa, x1 = 0.0001803): 1.013 ± 0.06 mPa·s
- viscosity (293.15 K, 101.3 kPa, x1 = 0.00036): 1.021 ± 0.06 mPa·s
- viscosity (293.15 K, 101.3 kPa, x1 = 0.0005398): 1.029 ± 0.06 mPa·s
- viscosity (298.15 K, 101 kPa, x1 = 0.000364): 0.899 ± 0.009 mPa·s and 0.8985 ± 0.0083 mPa·s
- viscosity (298.15 K, 101 kPa, x1 = 0.000657): 0.904 ± 0.009 mPa·s and 0.9039 ± 0.0084 mPa·s
- viscosity (298.15 K, 101 kPa, x1 = 0.001): 0.823 ± 0.082 mPa·s
- viscosity (298.15 K, 101 kPa, x1 = 0.00125): 0.916 ± 0.009 mPa·s and 0.9161 ± 0.0085 mPa·s
- viscosity (298.15 K, 101 kPa, x1 = 0.00155): 0.922 ± 0.009 mPa·s and 0.9216 ± 0.0086 mPa·s
- viscosity (298.15 K, 101 kPa, x1 = 0.001665): 0.9245 ± 0.0066 mPa·s
- viscosity (298.15 K, 101 kPa, x1 = 0.001856): 0.927 ± 0.009 mPa·s and 0.9273 ± 0.0086 mPa·s
- viscosity (298.15 K, 101 kPa, x1 = 0.002776): 0.9451 ± 0.0067 mPa·s
- viscosity (298.15 K, 101 kPa, x1 = 0.003): 0.835 ± 0.084 mPa·s
- viscosity (298.15 K, 101 kPa, x1 = 0.005): 0.847 ± 0.085 mPa·s
- viscosity (298.15 K, 101 kPa, x1 = 0.005396): 0.9979 ± 0.0069 mPa·s
- viscosity (298.15 K, 101 kPa, x1 = 0.009999): 1.1 ± 0.0074 mPa·s
- viscosity (298.15 K, 101.3 kPa, x1 = 0.0001803): 0.905 ± 0.06 mPa·s
- viscosity (298.15 K, 101.3 kPa, x1 = 0.00036): 0.913 ± 0.06 mPa·s
- viscosity (298.15 K, 101.3 kPa, x1 = 0.0005398): 0.918 ± 0.06 mPa·s
- viscosity (303.15 K, 101 kPa, x1 = 0.001798): 0.8267 ± 0.017 mPa·s and 0.825 ± 0.014 mPa·s
- viscosity (303.15 K, 101 kPa, x1 = 0.0018): 0.8248 ± 0.014 mPa·s
- viscosity (303.15 K, 101 kPa, x1 = 0.00359): 0.8564 ± 0.018 mPa·s and 0.8524 ± 0.014 mPa·s
- viscosity (303.15 K, 101 kPa, x1 = 0.005375): 0.8897 ± 0.019 mPa·s and 0.8876 ± 0.019 mPa·s and 0.8876 ± 0.015 mPa·s
- viscosity (303.15 K, 101 kPa, x1 = 0.007154): 0.9213 ± 0.019 mPa·s and 0.9197 ± 0.019 mPa·s
- viscosity (303.15 K, 101 kPa, x1 = 0.007156): 0.916 ± 0.015 mPa·s
- viscosity (303.15 K, 101.3 kPa, x1 = 0.0001803): 0.812 ± 0.06 mPa·s
- viscosity (303.15 K, 101.3 kPa, x1 = 0.00036): 0.817 ± 0.06 mPa·s
- viscosity (303.15 K, 101.3 kPa, x1 = 0.0005398): 0.821 ± 0.06 mPa·s
- viscosity (308.15 K, 101 kPa, x1 = 0.000364): 0.724 ± 0.008 mPa·s and 0.7239 ± 0.0068 mPa·s
- viscosity (308.15 K, 101 kPa, x1 = 0.000657): 0.728 ± 0.008 mPa·s and 0.7282 ± 0.0069 mPa·s
- viscosity (308.15 K, 101 kPa, x1 = 0.0007676): 0.7308 ± 0.0059 mPa·s
- viscosity (308.15 K, 101 kPa, x1 = 0.00125): 0.738 ± 0.008 mPa·s and 0.7377 ± 0.007 mPa·s
- viscosity (308.15 K, 101 kPa, x1 = 0.00155): 0.743 ± 0.008 mPa·s and 0.7431 ± 0.007 mPa·s
